Values quoted from earlier work in paper PMC12296474, “Nano-Amounts of Glucagon Premixed With Fast-Acting Insulin Lispro: Effect on Insulin Absorption in Pigs” (Current Therapeutic Research, Clinical and Experimental, 2025).

Tested on: subcutaneous blood flow
Details: healthy subjects
Procedure: We focused our proof-of-concept experiments on adding nanogram doses of glucagon to Lyumjev^Ⓡ, the most fast-acting insulin formulation available on the market. As previously discussed, we believe glucagon may increase insulin absorption through significant but very localized subcutaneous vasodilation. Therefore, it is noteworthy that when glucagon was added to Lyumjev^Ⓡ, an insulin formulation that already contains 10 ng of the vasodilator treprostinil per unit of insulin, we observed even faster insulin absorption. This effect was not observed in experiments with glucagon added to Humalog^Ⓡ. ...

In the case of glucagon, the “Enhancement of subcutaneous blood flow” value is given as 4% to 500.
